Measured values reported in patent US6255347A (priority 1997, dated 2001).
“Also recorded” adds a separate entry of the source.

What was measured:
[1] = tested on: APPs secretion by NIH 3T3 cell lines; experiment: cells; conditions: Mus musculus, NIH3T3, 20 h, read-out: fold increase of APPs secretion
[2] = tested on: APPs secretion by NIH 3T3 cell lines; conditions: 50 μM; for Density of APPs band: 20 h culture, n = 2, mean ± S.D.
[3] = tested on: risk of AD; conditions: in vivo; cited from earlier work
[4] = cited from earlier work
[5] = cited from earlier work; remark: listed apart in the source
[6] = tested on: cyclooxygenase; conditions: cited from earlier work
[7] = Chiral inversion of R- to S-ibuprofen in culture (HPLC); assay type: in vitro ADME; conditions: NIH 3T3 culture
Procedure: The concentration of the enantiomers of ibuprofen in cell culture media was determined by an HPLC procedure previously described for the enantiomers of ketoprofen (Grubb et al., 1996). The HPLC column consisted of a 5 μm (S,S)-Whelk-O1 stationary phase (250 mm×4.6 mm; Regis Technologies, Morton Grove, Ill.) eluted with a mobile phase of hexane/isopropyl alcohol/acetic acid (98/2/0.05) flowing at 0.8 ml/ min. […] Quantitation was achieved using peak area ratios with R-flurbiprofen as internal standard and ultraviolet absorbance at 254 nm. The limit of quantitation was set at 100 ng/ml.

[8] = biological target: T1, PKC (Rattus norvegicus, UniProt P05696); experiment: Protein kinase C activity assay (histone phosphorylation, partially purified rat brain PKC); assay type: biochemical; conditions: PMA stimulated; for concentration inhibiting PKC mediated histone phosphorylation: 2 min, 30° C.
T1 construct: Partially purified PKCα from rat brain; purchased Promega (Madison, Wis.); host or cells: rat brain (tissue enzyme, partially purified)
Procedure: The following were obtained from the Sigma Chemical Co. (St. […] Anti-PKCα antibody (affinity purified) and its C-terminal region peptide was obtained from Life Technologies (Gaithersburg, Md.). […] All other chemicals were of the highest available purity and were obtained from standard commercial sources. […] Following 2 min initial incubation at 30° C., kinase reactions were initiated by the addition of ^32 P-γ-ATP and enzyme and continued at 30° C. for 2 min. Control incubations contained all assay components except enzyme and ibuprofen. […] All samples were carried out in duplicate.

[9] = tested on: NIH 3T3 cells; experiment: Foci formation assay, inhibition of PMA induced neoplastic transformation of NIH 3T3 cells; assay type: cell-based; conditions: PMA 0.02 μg/ml, 2% FBS; for inhibition of PMA induced foci formation / neoplastic transformation: 6 weeks, ibuprofen 10 or 100 μg/ml
Procedure: (§1) NIH 3T3 cells (American Type Culture Collection, Rockville, Md.) were cultured in DMEM supplemented with 10% FBS inoculated at 10^4 cells/35 […] dish. […] PMA and ibuprofen were dissolved in DMSO and stored in 5% DMSO stock solutions that were diluted a 1000-fold with culture media prior to use. […] The media containing freshly added PMA and ibuprofen were changed every 60 hours for both the foci formation assay and PKCα analysis by Western blot.
Subsequent to washing with a tris/ saline buffer, the cells were stained with a solution of 4% aqueous Giemsa stain in phosphate buffer (pH 7.0). Foci of transformed cells were then visible by eye due to their high local density and verified by under light microscopy.

[10] = tested on: PKCα; experiment: PKCα translocation in NIH 3T3 cells (subcellular fractionation, Western blot); assay type: cell-based; conditions: 10 μg/ml; for inhibition of PKCα translocation from cytosol to nuclear compartments: PMA 4 hours; for inhibition of PKCα translocation, racemate versus enantiomers: particularly 2 weeks of PMA
Procedure: as §1
The cells were washed twice with phosphate-buffered saline (PBS) at 37° C. and subsequently lysed and scraped in 1 ml ice-cold protein lysis buffer (20 mM Tris-HCl, pH7.4, 2 mM EGTA, 2 mM EDTA, […] leupeptin and […] aprotinin) at 4° C. […] Briefly, cells were homogenized 10× in 15 ml glass homogenizer with a tight-fitting pestle and centrifuged at 900×g for 10 min. The resulting supernatant was then centrifuged at 100,000×g for 60 min to produce a nucleus-free membrane fraction (pellet) and a cytosol fraction (supernatant) for Western blots. The 900×g nuclear pellet was suspended in the 2 ml lysis buffer containing 10% sucrose and 0.1% Triton X-100 and washed twice by centrifuging at 1000×g for 10 min, then resuspended in 1 ml of the same buffer without Triton X-100 for Western blots. The purity of the fractions was monitored by light microscopy. […] The samples were stored at -70° C. until analysis.
15 μl of human plasma, 15 μl of rat plasma, CSF or 50 μg of rat brain protein were denatured with 35 μl of sample buffer at 95° C. for 4 min. Denatured proteins were separated by 10% SDS-polyacrylamide gel electrophoresis with a 50 μg or 20 μg protein load for each sample for APPs or PKC, respectively, and electrophoretically transferred from gel to nitrocellulose membrane. […] The immunoreactive bands were developed using enhanced chemilumenescence (ECL. Amersham Life Sci., Little Chalfont, UK), following extensive washing with the blocking buffer. The PKC bands were verified in each case by competitively blocking the signal with the peptide corresponding to each of PKCs. The bands were quantitated by scanning densitometry. Quantitative comparisons were made between samples processed simultaneously on one blot.

[11] = tested on: rat stomach and duodenum; experiment: Gastric ulcer index / gastroduodenal lesions in rat; assay type: in vivo
Procedure: Male Sprague-Dawley rats (12 month) were obtained from Harlan-Sprague-Dawley, Inc. (Indianapolis, Ind.) and housed under controlled conditions of temperature humidity and light/dark cycle. […] Rat blood, brain and 50 μl of cerebrospinal fluid were collected and stored at -70° C. for APPs and PKC analysis by Western blotting. Rat stomach and duodenum were collected for the quantitation of gastroduodenal lesions.
The rat stomach and first 12 cm of the duodenum were opened and carefully shed with saline to remove any residual debris and fixed in 10% buffered formaldehyde. Tissues were examined macroscopically (×10) for lesions and hemorrhages. The evaluation of lesions or hemorrhages was based on the ulcer index (UI) reported by Leyck et al. (1985) and expressed as the sum total of lesions per treatment. The scoring units used ranged from 0 to 5, where zero represents no macroscopically visible lesions; 1 represents one to three small ulcers less than 4 mm; 2 represents more than three small ulcers; 3 represents ulcer hemorrhages with several small ulcers; 4 represents large (>4 mm) ulcers; 5 indicates tissue perforation.

[12] = tested on: human neoplastic diseases; conditions: cited from earlier work
[13] = tested on: animal tumors; conditions: in vivo; cited from earlier work
[14] = tested on: APP; conditions: via activation of PKC; cited from earlier work

SMILES: CC(C(=O)O)c1cccc(Oc2ccccc2)c1 (racemic) [RS-Fenoprofen]
- fold induction at 50 µM [1]: 1.6
- Density of APPs band [2]: 6.36 ± 0.77

SMILES: CC(=O)Oc1ccccc1C(=O)O [Aspirin]
- association with decreased risk of AD [3]: not associated
- APPs secretion (in words) ([2]; 20 h): failed to show an increased secretion of APPs
- Density of APPs band [2]: 2.92 ± 0.43

SMILES: O=NN(CCCl)C(=O)NCCCl [Carmustine, 1,3-bis (2-chloroethyl)-1-nitrosourea]
- solubility (in words) ([4]; solvent): highly soluble in alcohol and lipids, and poorly soluble in water

SMILES: O=NN(CCCl)C(=O)NC1CCCCC1 [Lomustine, 1-(2-chloro-ethyl)-3-cyclohexyl-1 nitrosourea]
- ionization ([4]; physiological pH): relatively unionized at a physiological pH
- tissue levels compared to plasma levels ([5]; 15 minutes after intravenous administration): comparable to plasma levels
- radioactivity excreted as degradation products ([5]; oral 30 mg/m^2 to 100 mg/m^2, within 24 hours): about half

SMILES: C[C@@H](C(=O)O)c1cccc(Oc2ccccc2)c1 [R-Fenoprofen]
- fold induction at 50 µM [1]: 1.3
- Density of APPs band [2]: 5.32 ± 1.29

SMILES: CC(C)Cc1ccc([C@@H](C)C(=O)O)cc1 [R-ibuprofen]
- capability to inhibit cyclooxygenase (in words) [6]: very weak capability to inhibit cyclooxygenase
- inversion of R- to S-ibuprofen [7]: No inversion of R- to S-ibuprofen was detectable; also recorded: did not occur
- concentration inhibiting PKC mediated histone phosphorylation [8]: 1 µM
- inhibition at 20 µM ([8]; read-out: maximal inhibition of PKC activity, at 20 μM): 53%
- inhibition of foci formation, enantiomers compared to racemate [9]: more pronounced than that of the racemate; also recorded: more effective than the racemic mixture
- inhibition of PMA induced foci formation / neoplastic transformation [9]: dramatically decreased; also recorded: inhibit the neoplastic transformation; also recorded: substantially inhibited
- inhibition of PKCα translocation compared to antipode ([10]; 4 hours PMA): more effective than its antipode
- inhibition of PKCα translocation from cytosol to nuclear compartments [10]: clearly modulated the time dependent intracellular redistribution of PKCα
- inhibition of PKCα translocation, racemate versus enantiomers [10]: more effective than the racemic mixture
- gastric ulcers, incidence ([11]; rat, in vivo): one small gastric ulcer in 2 out of 4 rats
- ulcers larger than 4 mm ([11]; rat, in vivo): no ulcer larger than 4 mm

SMILES: C[C@H](C(=O)O)c1cccc(Oc2ccccc2)c1 [S-Fenoprofen]
- fold induction at 50 µM [1]: 1.3
- Density of APPs band [2]: 5.32 ± 1.53

SMILES: CC(C)Cc1ccc([C@H](C)C(=O)O)cc1 [S-ibuprofen]
- capability to inhibit cyclooxygenase (in words) [6]: inhibition of cyclooxygenase activity by ibuprofen resides almost exclusively in the S-enantiomer
- potency in suppressing prostaglandin formation, S- versus R-ibuprofen ([6]; from arachidonic acid): approximately 100 times
- concentration inhibiting PKC mediated histone phosphorylation [8]: 1 µM
- inhibition of foci formation, enantiomers compared to racemate [9]: more pronounced than that of the racemate; also recorded: more effective than the racemic mixture
- inhibition of PMA induced foci formation / neoplastic transformation [9]: dramatically decreased; also recorded: inhibit the neoplastic transformation; also recorded: substantially inhibited
- inhibition of PKCα translocation from cytosol to nuclear compartments [10]: clearly modulated the time dependent intracellular redistribution of PKCα
- inhibition of PKCα translocation, racemate versus enantiomers [10]: more effective than the racemic mixture
- Bleeding site (B), column 1 ([11]; 10 mg/kg bid, 7 days, column 1): 4
- gastropathy (in words) ([11]; rat, in vivo): induced serious gastric ulcers and hemorrhage

SMILES: CC[C@]1(O)C[C@@H]2CN(CCc3c([nH]c4ccccc34)[C@@](C(=O)OC)(c3cc4c(cc3OC)N(C)[C@H]3[C@@](O)(C(=O)OC)[C@H](OC(C)=O)[C@]5(CC)C=CCN6CC[C@]43[C@@H]65)C2)C1 [Vinblastine]
- cases with significant improvement ([12]; lymphomas, particularly Hodgkin's disease): 50 to 90%
- excreted in urine ([5]; in vivo): Approximately 15%
- recovered in the feces ([5]; in vivo): about 10%

SMILES: CC(=O)Nc1ccc(O)cc1 [acetaminophen]
- association with decreased risk of AD [3]: not associated

SMILES: CS(=O)(=O)OCCCCOS(C)(=O)=O [busulfan, 1,4-butanediol dimethanesulfonate]
- patients obtaining hematologic remission ([12]; previously untreated chronic myelogenous leukemia, adults): Approximately 90%

SMILES: N[C@H](Cc1ccc(N(CCCl)CCCl)cc1)C(=O)O [medphalan]
- activity against certain animal tumors versus melphalan [13]: less active

SMILES: CCCCCCCCCCCCCC(=O)O[C@@H]1[C@@H](C)[C@@]2(O)[C@@H](C=C(CO)C[C@]3(O)C(=O)C(C)=C[C@@H]23)[C@@H]2C(C)(C)[C@]12OC(C)=O [phorbol ester]
- formation of APPs [14]: increase the formation of APPs
- production of amyloidogenic fragments containing Aβ and Aβ [14]: reduce the production
